Laboratory results: ChEMBL document CHEMBL1201862, “PubChem BioAssay data set” (2004)
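Grown in 96-well plates, cells were treated for 48 hours with each compound at five concentrations. Insufficient inhibition: endpoint recorded as highest concentration tested. At the GI50, growth is halved.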 Activity calls are given as the source filed them. Cut-off read from the data, not from the text of the source: active = GI50 up to about 1.1 µM and inactive = higher.

What was measured:
Test in all cases: NCI tumour cell line growth inhibition, 48 h
SN12C = test system: SN12C
SR = test system: SR
HCT-116 = test system: HCT-116
M14 = test system: M14
TK-10 = test system: TK-10
HT-29 = test system: HT-29
OVCAR-4 = test system: OVCAR-4
OVCAR-5 = test system: OVCAR-5
SK-OV-3 = test system: SK-OV-3
HCC 2998 = test system: HCC 2998
EKVX = test system: EKVX
Malme-3M = test system: Malme-3M
K562 = test system: K562
CCRF-CEM = test system: CCRF-CEM
SNB-19 = test system: SNB-19
U-251 = test system: U-251
SW-620 = test system: SW-620
NCI-H23 = test system: NCI-H23
SK-MEL-2 = test system: SK-MEL-2
MDA-MB-435 = test system: MDA-MB-435
SF-295 = test system: SF-295
RXF 393 = test system: RXF 393
LOX IMVI = test system: LOX IMVI
UACC-257 = test system: UACC-257
UACC-62 = test system: UACC-62
MOLT-4 = test system: MOLT-4
CAKI-1 = test system: CAKI-1
HOP-92 = test system: HOP-92
NCI-H460 = test system: NCI-H460
SK-MEL-5 = test system: SK-MEL-5
A549 = test system: A549
NCI-H522 = test system: NCI-H522
NCI/ADR-RES = test system: NCI/ADR-RES
SK-MEL-28 = test system: SK-MEL-28
UO-31 = test system: UO-31
Hs-578T = test system: Hs-578T
IGROV-1 = test system: IGROV-1
MCF7 = test system: MCF7
OVCAR-8 = test system: OVCAR-8
RPMI-8226 = test system: RPMI-8226
SNB-75 = test system: SNB-75
KM12 = test system: KM12
HCT-15 = test system: HCT-15
PC-3 = test system: PC-3
786-0 = test system: 786-0
ACHN = test system: ACHN
MDA-MB-231 = test system: MDA-MB-231
COLO 205 = test system: COLO 205
SF-268 = test system: SF-268
DU-145 = test system: DU-145
A498 = test system: A498
SF-539 = test system: SF-539
NCI-H226 = test system: NCI-H226

For COc1cc(C2c3cc4c(cc3[C@@H](NC3CCN(Cc5ccccc5)CC3)C3COC(=O)[C@H]23)OCO4)cc(OC)c1O (stereo partly specified), the GI50 (SN12C) was 0.0399 µM (active) and the GI50 (SR) was < 0.01 µM (active).

In the case of C/C1=C\CC[C@@]2(C)O[C@@H]2[C@H]2OC(=O)C(C)C2C[C@H]1O (stereo partly specified), the GI50 (HCT-116) is reported as > 100 µM (inactive), the GI50 (M14) is reported as > 100 µM (inactive) and the GI50 (TK-10) is reported as > 100 µM (inactive). The GI50 (HT-29) was > 100 µM (inactive), the GI50 (SN12C) was > 100 µM (inactive) and the GI50 (OVCAR-4) was > 100 µM (inactive). The GI50 (OVCAR-5) was > 100 µM (inactive), the GI50 (SK-OV-3) was > 100 µM (inactive) and the GI50 (HCC 2998) was > 100 µM (inactive). The GI50 (EKVX) was > 100 µM (inactive), the GI50 (Malme-3M) was > 100 µM (inactive) and the GI50 (K562) was > 100 µM (inactive). The GI50 (CCRF-CEM) was > 100 µM (inactive), the GI50 (SNB-19) was > 100 µM (inactive) and the GI50 (U-251) was > 100 µM (inactive). The GI50 (SW-620) was > 100 µM (inactive), the GI50 (NCI-H23) was > 100 µM (inactive) and the GI50 (SK-MEL-2) was > 100 µM (inactive). The GI50 (MDA-MB-435) was > 100 µM (inactive), the GI50 (SF-295) was > 100 µM (inactive) and the GI50 (RXF 393) was > 100 µM (inactive). For the same compound, the GI50 (LOX IMVI) was > 100 µM (inactive), the GI50 (UACC-257) was > 100 µM (inactive) and the GI50 (UACC-62) was > 100 µM (inactive). The GI50 (MOLT-4) was > 100 µM (inactive), the GI50 (CAKI-1) was > 100 µM (inactive) and the GI50 (HOP-92) was > 100 µM (inactive). For the same compound, the GI50 (NCI-H460) was > 100 µM (inactive), the GI50 (SK-MEL-5) was 22.5 µM (inactive) and the GI50 (A549) was > 100 µM (inactive). The GI50 (NCI-H522) was > 100 µM (inactive), the GI50 (NCI/ADR-RES) was > 100 µM (inactive) and the GI50 (SK-MEL-28) was > 100 µM (inactive). For the same compound, the GI50 (UO-31) was > 100 µM (inactive), the GI50 (Hs-578T) was 10.3 µM (inactive) and the GI50 (IGROV-1) was > 100 µM (inactive). The GI50 (MCF7) was > 100 µM (inactive), the GI50 (OVCAR-8) was > 100 µM (inactive) and the GI50 (RPMI-8226) was > 100 µM (inactive). The GI50 (SNB-75) was > 100 µM (inactive), the GI50 (KM12) was > 100 µM (inactive) and the GI50 (HCT-15) was > 100 µM. The GI50 (PC-3) was > 100 µM (inactive), the GI50 (SR) was > 100 µM (inactive) and the GI50 (786-0) was > 100 µM (inactive). The GI50 (ACHN) was > 100 µM (inactive), the GI50 (MDA-MB-231) was > 100 µM (inactive) and the GI50 (COLO 205) was > 100 µM (inactive). The GI50 (SF-268) was > 100 µM (inactive) and the GI50 (DU-145) was > 100 µM (inactive).

COc1cc([C@@H]2c3cc4c(cc3[C@@H](Nc3ccc(C(=O)N[C@H]5CCc6cc(OC)c(OC)c(OC)c6-c6ccc(SC)c(=O)cc65)cc3)[C@H]3COC(=O)[C@H]23)OCO4)cc(OC)c1O was tested, and the GI50 (A498) was 0.437 µM (active), the GI50 (HCT-116) was < 0.01 µM (active) and the GI50 (M14) was < 0.01 µM (active). For the same compound, the GI50 (TK-10) was 15.2 µM (inactive), the GI50 (HT-29) was < 0.01 µM (active) and the GI50 (SN12C) was < 0.01 µM (active). For the same compound, the GI50 (OVCAR-5) was 43.1 µM (inactive), the GI50 (Malme-3M) was 0.322 µM (active) and the GI50 (K562) was < 0.01 µM (active). The GI50 (CCRF-CEM) was < 0.01 µM (active), the GI50 (U-251) was < 0.01 µM (active) and the GI50 (SW-620) was < 0.01 µM (active). For the same compound, the GI50 (NCI-H23) was < 0.01 µM (active), the GI50 (SK-MEL-2) was < 0.01 µM (active) and the GI50 (MDA-MB-435) was < 0.01 µM (active). For the same compound, the GI50 (SF-295) was < 0.01 µM (active), the GI50 (LOX IMVI) was < 0.01 µM (active) and the GI50 (UACC-257) was < 0.01 µM (active). For the same compound, the GI50 (UACC-62) was < 0.01 µM (active), the GI50 (MOLT-4) was < 0.01 µM (active) and the GI50 (CAKI-1) was 0.132 µM (active). The GI50 (HOP-92) was 0.042 µM (active), the GI50 (NCI-H460) was < 0.01 µM (active) and the GI50 (A549) was < 0.01 µM (active). For the same compound, the GI50 (NCI-H522) was < 0.01 µM (active), the GI50 (NCI/ADR-RES) was 0.493 µM (active) and the GI50 (SK-MEL-28) was 13 µM (inactive). For the same compound, the GI50 (UO-31) was 0.698 µM (active), the GI50 (SF-539) was < 0.01 µM (active) and the GI50 (MCF7) was < 0.01 µM (active). The GI50 (OVCAR-8) was < 0.01 µM (active), the GI50 (RPMI-8226) was < 0.01 µM (active) and the GI50 (NCI-H226) was < 0.01 µM (active). The GI50 (HCT-15) was 0.428 µM, the GI50 (SR) was < 0.01 µM (active) and the GI50 (786-0) was < 0.01 µM (active). For the same compound, the GI50 (ACHN) was 0.0598 µM (active), the GI50 (COLO 205) was < 0.01 µM (active) and the GI50 (SF-268) was 11.7 µM (inactive).
